Test results from US20250207175A1, “METHOD FOR DETECTING CONTAMINATING CARBOXYLESTERASE ACTIVITY” (Boehringer Ingelheim International GmbH, priority 2022, published 2025).

How the values were obtained:
[1] = Solubility of OPTS in H2O (stock solutions, verified by light scattering); type: physicochemical; conditions: water, aqueous stock solution
Method: Stock solutions of the fluorogenic substrate in water were prepared. Aqueous solutions with an OPTS concentration ≥2.0 mM could be prepared. The solubility could be verified by light scattering experiments.

[2] = type: physicochemical
Excerpt: In order to be able to determine the enzymatic activity, a substrate, 1-octanoyloxy-pyrene-3,6,8-trisulfonic acid trisodium salt (OPTS), was chosen. Its hydrolytic product, 1-hydroxypyrene-3,6,8-trisulfonic acid trisodium salt (HPTS), can be detected by fluorescence spectroscopy. The change in the fluorescence signal over time is directly related to the change in the concentration of free fluorophore. The conversion was made possible by setting up a calibration curve with a subsequent linear fit (R^2≥0.99). The experiments of the kinetics measurements with the OPTS/4-MUD substrates assay were performed in duplicates. The reaction mixture without the protein of interest, which served as the respective control, was subtracted from the protein-containing batch. The buffer used for OPTS measurements (hydrophilic substrate) contained 0.3 M HOAc, 0.3 M MES, 0.6 M TRIS and 0.6 M NaCl (4×AMT buffer; acetate, MES, TRIS). For 4-MUD substrate measurements (lipophilic substrate) 0.04 M CHAPS was added in addition. The buffer (AMT) was prepared in four-fold concentration (4×AMT) and was added at 25% (v/v) to the reaction mix. All measurements were carried out in multiwell plates with a preparation volume of 300 μL (75 μL 4×AMT buffer, 30 μL substrate, 75 μL enzyme-containing solution, x μL additive, 300 μL ad. H2O) Unless otherwise stated, all fluorescence spectroscopic measurements were performed using 96-well, clear-bottom, non-binding plates (Greiner, Austria) on a SpectraMax M3 PlateReader (Molecular Device, USA) and recorded using SoftMax Pro 7.0.3 software (Molecular Device, USA). The OPTS assay measurements were typically taken at 25° C., λex=403 nm and λem=512 nm and the 4-MUD assay measurements were taken at 25° C., λex=330 nm and λem=450 nm. For evaluation, the detected fluorescence signal for a reaction mix without protein of interest (control) was subtracted from the reaction mix with protein of interest (e.g. DS). Hydrolysis of the substrate has been measured by detecting the fluorescence intensity of the released chromophore (4-MU or HPTS) immediately following mixing in real-time for a few minutes up to 5 hours depending on fluorescence intensity. The changes in the fluorescence signal over time were subsequently converted to hydrolytic activity using previously established calibration curves with a linear fit (R^2≥0.99).
The fluorophore HPTS can be released from the substrate (here esterified caprylic acid) by enzymatic or chemical hydrolysis (acidic and alkaline hydrolysis). In order to assess the influence of pH on aqueous solutions of the substrate, 225 μL of a 33.3 μM OPTS solution was added to 75 μL each of AMT buffer (with pH=5.5 and pH=8) and the kinetics of fluorophore release were recorded for two hours.
There is a clear difference in the slope of the fluorescence signals for the different pH values. Based on the recorded calibration curves the autohydrolysis rate at pH 5.5 was calculated as 1.58*10^−7 units (μmol*min-1) and the autohydrolysis rate at pH 8.0 was calculated as 3.48*10^−6 units. Thus, the hydrolysis rate at pH 8 is about 22-times higher compared to pH 5.5, showing that hydrolysis of the fluorogenic substrate can be observed over time, at basic pH, but only at a very low level at pH 5.5. […]

[3] = OPTS assay of histidine-containing buffer controls; conditions: histidine concentrations of less than 200 μM; data not shown
Method: 9 different antibody (Ab1-Ab9) samples were tested using the OPTS assay. As a control, measurements were performed with the respective same buffer solution as used in the antibody sample.
Since histidine has been reported previously to mediate hydrolytic activities in aqueous solutions similar to esterases (Delort, Nguyen-Trung et al. 2006, Mason, McCracken et al. 2010, Amano, Kobayashi et al. 2014, Xu, Chen et al. 2017), samples were dialysed against 0.002% NaCl using a two-step dialysis with a molecular weight cut-off (MWCO) of 20K. For preparative dialysis, the pre-wettened dialysis cassette was filled with 2 ml antibody solution and placed in a beaker filled with 1 L NaCl (0.002% w/v) solution with gentle stirring. After one hour the 1 L NaCl solution was replaced with fresh NaCl (0.002% w/v) solution and dialysed for another two hours with gentle stirring. […] In the following the assay was performed using dialysed drug substance samples. The same solution (final solution outside the dialysis cassette) was used as control sample to be subtracted from the test sample.

lipase activity = conditions: FIG. 10 of WO 2022 049294 A1; cited from earlier work

Compound: CCCCCCCC(=O)Oc1cc(S(=O)(=O)[O-])c2ccc3c(S(=O)(=O)[O-])cc(S(=O)(=O)[O-])c4ccc1c2c43.[Na+].[Na+].[Na+] [OPTS, 1-octanoyloxy-pyrene-3,6,8-trisulfonic acid trisodium salt]
- solubility [1]: ≥ 2000 µM
- stability of OPTS in solvent (autohydrolysis) [2]: more stable in DMSO compared to H2O
- autohydrolysis rate at pH 5.5 ([2]; 25 μM OPTS, AMT buffer pH 5.5, two hours): 1.58*10^−7 units (μmol*min-1)
- autohydrolysis rate at pH 8.0 ([2]; 25 μM OPTS, AMT buffer pH 8.0, two hours): 3.48*10^−6 units
- hydrolysis rate at pH 8 compared to pH 5.5 ([2]; autohydrolysis of OPTS): about 22 times
- autohydrolysis of OPTS compared to 4-MUD ([2]; particularly at pH 8.0): more critical

Compound: N[C@@H](Cc1c[nH]cn1)C(=O)O [histidine]
- activity of histidine buffer component in the OPTS assay [3]: low 10^−7

Compound: polyethylene glycol tert-octylphenyl ether [Triton X-100]
- effect of detergent on the 4-MUD assay (lipase activity): inhibited
